Patent publication US12612384B2, “Heterocyclic CYP4A inhibitor compounds and compositions thereof” (MBD CO., LTD., priority 2021, dated 2026)

Target: T1, CYP4A (Homo sapiens, UniProt Q02928)
T1 construct: purchased; host or cells: bacterial membranes ('bactosome')
T1 sequence (Q02928 5-519): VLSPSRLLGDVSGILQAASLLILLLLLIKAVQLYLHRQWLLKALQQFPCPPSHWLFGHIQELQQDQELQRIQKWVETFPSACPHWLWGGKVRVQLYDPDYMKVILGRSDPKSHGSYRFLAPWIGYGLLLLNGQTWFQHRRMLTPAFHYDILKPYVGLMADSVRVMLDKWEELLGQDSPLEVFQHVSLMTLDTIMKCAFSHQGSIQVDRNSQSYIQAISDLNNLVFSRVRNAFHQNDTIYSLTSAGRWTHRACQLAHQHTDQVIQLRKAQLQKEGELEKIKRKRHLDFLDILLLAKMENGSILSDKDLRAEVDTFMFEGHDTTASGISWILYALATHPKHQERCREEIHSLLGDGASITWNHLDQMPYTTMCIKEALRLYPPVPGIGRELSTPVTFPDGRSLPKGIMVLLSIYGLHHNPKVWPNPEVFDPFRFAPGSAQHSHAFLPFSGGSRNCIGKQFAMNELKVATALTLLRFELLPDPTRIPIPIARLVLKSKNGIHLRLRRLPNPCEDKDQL
Test: CYP4A enzyme assay (luminescence, Luciferin-ME)
Assay type: biochemical
Conditions: Compound concentration 5 μM; 50%-70%; read-out: % Inhibition 50%-70%
In short: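 Compounds (5 μM) were preincubated 15 min at room temperature with CYP4A bactosomes in 100 mM KPO4, 0.1% BSA, 1 mM DTT. Reaction ran 30 min at room temperature after adding 5 mM Luciferin-ME and NADPH regeneration system. Luminescence after 15 min with detection reagent; inhibition judged by comparing well signals.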

| inhibition at 5 µM [%] | Compound |
| --- | --- |
| 50 to 70 | Cc1cc(N2CCN(C(=O)C3CCCN(C(=O)c4ccncc4)C3)CC2)c2ccccc2n1 (stereo not shown) [Example 104, (1-isonicotinoylpiperidin-3-yl)(4-(2-methylquinolin-4-yl)piperazin-1-yl)methanone] |
| 50 to 70 | O=C(C1CCCN(C(=O)C2CCCCC2)C1)N1CCN(c2ccnc3cc(F)ccc23)CC1 (stereo not shown) [Example 108, (1-(cyclohexylcarbonyl)piperidin-3-yl)(4-(7-fluoroquinolin-4-yl)piperazin-1-yl)methanone] |
| 50 to 70 | O=C(c1ccccc1)N1CCCC(C(=O)N2CCN(c3ccnc4ccccc34)CC2)C1 (stereo not shown) [Example 113, (1-benzoylpiperidin-3-yl)(4-(quinolin-4-yl)piperazin-1-yl)methanone] |
| 50 to 70 | O=C(C1CCCN(S(=O)(=O)C2CC2)C1)N1CCN(c2ccnc3cc(F)ccc23)CC1 (stereo not shown) [Example 119, (1-(cyclopropylsulfonyl)piperidin-3-yl)(4-(7-fluoroquinolin-4-yl)piperazin-1-yl)methanone] |
| 50 to 70 | O=C(C1CCCN(S(=O)(=O)C2CC2)C1)N1CCN(c2ccnc3ccccc23)CC1 (stereo not shown) [Example 122, (1-(cyclopropylsulfonyl)piperidin-3-yl)(4-(quinolin-4-yl)piperazin-1-yl)methanone] |
| 50 to 70 | O=C(C1CCCN(S(=O)(=O)c2ccco2)C1)N1CCN(c2ccnc3cc(Cl)ccc23)CC1 (stereo not shown) [Example 123, (4-(7-chloroquinolin-4-yl)piperazin-1-yl)(1-(furan-2-ylsulfonyl)piperidin-3-yl)methanone] |
| 50 to 70 | Cc1cc(N2CCN(C(=O)C3CCCN(S(=O)(=O)c4cccnc4)C3)CC2)c2ccccc2n1 (stereo not shown) [Example 125, (4-(2-methylquinolin-4-yl)piperazin-1-yl)(1-(pyridin-3-ylsulfonyl)piperidin-3-yl)methanone] |
| 50 to 70 | Cc1cc(N2CCN(C(=O)C3CCCN(S(=O)(=O)c4ccncc4)C3)CC2)c2ccccc2n1 (stereo not shown) [Example 126, (4-(2-methylquinolin-4-yl)piperazin-1-yl)(1-(pyridin-4-ylsulfonyl)piperidin-3-yl)methanone] |
| 50 to 70 | Cc1cc(N2CCN(C(=O)C3CCCN(S(=O)(=O)c4cccs4)C3)CC2)c2ccccc2n1 (stereo not shown) [Example 127, (4-(2-methylquinolin-4-yl)piperazin-1-yl)(1-(thiophen-2-ylsulfonyl)piperidin-3-yl)methanone] |
| 50 to 70 | O=C(C1CCCN(S(=O)(=O)c2ccncc2)C1)N1CCN(c2cc(C(F)(F)F)nc3ccccc23)CC1 (stereo not shown) [Example 128, (1-(pyridin-4-ylsulfonyl)piperidin-3-yl)(4-(2-(trifluoromethyl)quinolin-4-yl)piperazin-1-yl)methanone] |
| 50 to 70 | O=C(C1CCCN(S(=O)(=O)c2cccnc2)C1)N1CCN(c2cc(C(F)(F)F)nc3ccccc23)CC1 (stereo not shown) [Example 129, (1-(pyridin-3-ylsulfonyl)piperidin-3-yl)(4-(2-(trifluoromethyl)quinolin-4-yl)piperazin-1-yl)methanone] |
| 50 to 70 | COC(=O)CCS(=O)(=O)N1CCCC(C(=O)N2CCN(c3ccnc4cc(F)ccc34)CC2)C1 (stereo not shown) [Example 130, methyl 3-((3-(4-(7-fluoroquinolin-4-yl)piperazine-1-carbonyl)piperidin-1-yl)sulfonyl)propanoate] |
| 50 to 70 | O=C(C1CCCN(S(=O)(=O)CCCO)C1)N1CCN(c2ccnc3cc(F)ccc23)CC1 (stereo not shown) [Example 131, (4-(7-fluoroquinolin-4-yl)piperazin-1-yl)(1-((3-hydroxypropyl)sulfonyl)piperidin-3-yl)methanone] |
| 50 to 70 | COC(=O)CCS(=O)(=O)N1CCCC(C(=O)N2CCN(c3ccnc4ccccc34)CC2)C1 (stereo not shown) [Example 132, methyl 3-((3-(4-(quinolin-4-yl)piperazine-1-carbonyl)piperidin-1-yl)sulfonyl)propanoate] |
| 50 to 70 | O=C(C1CCCN(S(=O)(=O)CCCO)C1)N1CCN(c2ccnc3ccccc23)CC1 (stereo not shown) [Example 133, (1-((3-hydroxypropyl)sulfonyl)piperidin-3-yl)(4-(quinolin-4-yl)piperazin-1-yl)methanone] |

Same assay, conditions: Compound concentration 5 μM; 70%-90%; read-out: % Inhibition 70%-90%

| inhibition at 5 µM [%] | Compound |
| --- | --- |
| 70 to 90 | CC(=O)Nc1ccc(C(=O)N2CCCC(C(=O)N3CCN(c4ccnc5cc(F)ccc45)CC3)C2)cc1 (stereo not shown) [Example 105, N-(4-(3-(4-(7-fluoroquinolin-4-yl)piperazine-1-carbonyl)piperidine-1-carbonyl)phenyl)acetamide] |
| 70 to 90 | O=C(c1ccc(F)cc1)N1CCCC(C(=O)N2CCN(c3ccnc4cc(F)ccc34)CC2)C1 (stereo not shown) [Example 106, (1-(4-fluorobenzoyl)piperidin-3-yl)(4-(7-fluoroquinolin-4-yl)piperazin-1-yl)methanone] |
| 70 to 90 | O=C(c1ccccc1)N1CCCC(C(=O)N2CCN(c3ccnc4cc(F)ccc34)CC2)C1 (stereo not shown) [Example 107, (1-benzoylpiperidin-3-yl)(4-(7-fluoroquinolin-4-yl)piperazin-1-yl)methanone] |
| 70 to 90 | O=C(c1ccncc1)N1CCCC(C(=O)N2CCN(c3ccnc4cc(F)ccc34)CC2)C1 (stereo not shown) [Example 109, (4-(7-fluoroquinolin-4-yl)piperazin-1-yl)(1-isonicotinoylpiperidin-3-yl)methanone] |
| 70 to 90 | COc1ccc(C(=O)N2CCCC(C(=O)N3CCN(c4ccnc5cc(F)ccc45)CC3)C2)cc1 (stereo not shown) [Example 110, (4-(7-fluoroquinolin-4-yl)piperazin-1-yl)(1-(4-methoxybenzoyl)piperidin-3-yl)methanone] |
| 70 to 90 | CC(=O)Nc1ccc(C(=O)N2CCCC(C(=O)N3CCN(c4ccnc5ccccc45)CC3)C2)cc1 (stereo not shown) [Example 111, N-(4-(3-(1-(quinolin-4-yl)piperazine-4-carbonyl)piperidine-1-carbonyl)phenyl)acetamide] |
| 70 to 90 | O=C(c1ccc(F)cc1)N1CCCC(C(=O)N2CCN(c3ccnc4ccccc34)CC2)C1 (stereo not shown) [Example 112, (1-(4-fluorophenylcarbonyl)piperidin-3-yl)(4-(quinolin-4-yl)piperazin-1-yl)methanone] |
| 70 to 90 | O=C(c1ccncc1)N1CCCC(C(=O)N2CCN(c3ccnc4ccccc34)CC2)C1 (stereo not shown) [Example 115, (1-isonicotinoylpiperidin-3-yl)(4-(quinolin-4-yl)piperazin-1-yl)methanone] |
| 70 to 90 | COc1ccc(C(=O)N2CCCC(C(=O)N3CCN(c4ccnc5ccccc45)CC3)C2)cc1 (stereo not shown) [Example 116, (1-(4-methoxyphenylcarbonyl)piperidin-3-yl)(4-(quinolin-4-yl)piperazin-1-yl)methanone] |
| 70 to 90 | O=C(C1CCCN(S(=O)(=O)C2CCCCC2)C1)N1CCN(c2ccnc3cc(F)ccc23)CC1 (stereo not shown) [Example 117, (1-(cyclohexylsulfonyl)piperidin-3-yl)(4-(7-fluoroquinolin-4-yl)piperazin-1-yl)methanone] |
| 70 to 90 | O=C(C1CCCN(S(=O)(=O)C2CCCCC2)C1)N1CCN(c2ccnc3ccccc23)CC1 (stereo not shown) [Example 121, (1-(cyclohexylsulfonyl)piperidin-3-yl)(4-(quinolin-4-yl)piperazin-1-yl)methanone] |
| 70 to 90 | O=C(C1CCCN(S(=O)(=O)c2ccncc2)C1)N1CCN(c2ccnc3cc(Cl)ccc23)CC1 (stereo not shown) [Example 124, (4-(7-chloroquinolin-4-yl)piperazin-1-yl)(1-(pyridin-4-ylsulfonyl)piperidin-3-yl)methanone] |
| 70 to 90 | O=C(C1CCN(S(=O)(=O)c2ncn[nH]2)CC1)N1CCN(c2ccnc3cc(F)ccc23)CC1 [Example 135, (1-((1H-1,2,4-triazol-5-yl)sulfonyl)piperidin-4-yl)(4-(7-fluoroquinolin-4-yl)piperazin-1-yl)methanone] |

Same assay, conditions: Compound concentration 5 μM; Greater than 90%; read-out: % Inhibition Greater than 90%

| inhibition at 5 µM [%] | Compound |
| --- | --- |
| > 90 | CC(=O)Nc1ccc(C(=O)N2CCCC(C(=O)N3CCN(c4ccnc5ccccc45)CC3)C2)cc1 (stereo not shown) [Example 111, N-(4-(3-(1-(quinolin-4-yl)piperazine-4-carbonyl)piperidine-1-carbonyl)phenyl)acetamide] |
| > 90 | Cn1ccnc1S(=O)(=O)N1CCCC(C(=O)N2CCN(c3ccnc4cc(F)ccc34)CC2)C1 (stereo not shown) [Example 118, (4-(7-fluoroquinolin-4-yl)piperazin-1-yl)(1-(1-methyl-1H-imidazol-2-ylsulfonyl)piperidin-3-yl)methanone] |
| > 90 | Cn1ccnc1S(=O)(=O)N1CCCC(C(=O)N2CCN(c3ccnc4ccccc34)CC2)C1 (stereo not shown) [Example 120, (1-(1-methyl-1H-imidazol-2-ylsulfonyl)piperidin-3-yl)(4-(quinolin-4-yl)piperazin-1-yl)methanone] |
| > 90 | O=C([C@@H]1CCN(S(=O)(=O)c2ncn[nH]2)C1)N1CCN(c2ccnc3cc(F)ccc23)CC1 [Example 134, (R)-(1-((1H-1,2,4-triazol-5-yl)sulfonyl)pyrrolidin-3-yl)(4-(7-fluoroquinolin-4-yl)piperazin-1-yl)methanone] |

Same assay, conditions: Compound concentration 5 μM; Less than 50%; read-out: % Inhibition Less than 50%

| inhibition at 5 µM [%] | Compound |
| --- | --- |
| < 50 | Cc1cc(N2CCN(C(=O)C3CCCN(C(=O)C4CCCCC4)C3)CC2)c2ccccc2n1 (stereo not shown) [Example 103, (1-(cyclohexylcarbonyl)piperidin-3-yl)(4-(2-methylquinolin-4-yl)piperazin-1-yl)methanone] |
| < 50 | O=C(C1CCCN(C(=O)C2CCCCC2)C1)N1CCN(c2ccnc3ccccc23)CC1 (stereo not shown) [Example 114, (1-(cyclohexylcarbonyl)piperidin-3-yl)(4-(quinolin-4-yl)piperazin-1-yl)methanone] |
